Several values for one entry are separate records, joined by “and”; a condition that tells them apart may be missing. Equal values may be shown once. Marks after values point to notes of the source that are not given here.
Legend:
Type in all cases: cell-based
human skin fibroblasts [1] = assay: [3H]thymidine incorporation (index of DNA synthesis) in human skin fibroblasts
Method: (§1) Human skin fibroblasts and human lung fibroblasts were supplied by the N.I.A. Aging Culture Repository Center (Camden, N.J.). For skin fibroblasts, primary cultures had been initiated from explants obtained from a 3 mm punch biopsy of the mesial aspect of the upper left arm. Human lung fibroblasts (IMR-90) were established from a […] normal […] fetus.
Cells were grown in Eagle's minimal essential medium (MEM) supplemented with 10% fetal bovine serum (FBS), 100 U/ml penicillin and […] streptomycin in a 37° C., 5% CO2/95% air environment. After reaching confluence, cells were subcultivated with 0.25% trypsin in MEM with no added Ca^2+ or Mg^2+.
As an index of DNA synthesis incorporation of [^3H]thymidine was measured as described in Ethier et al., Am. J. Physiol. 272:H1470-79 (1997). Confluent monolayers of human skin fibroblasts in MEM plus 10% FBS were seeded into 16 mm diameter culture wells (24-well plates) at a density of 1×10^4 cells/cm^2. Cells were grown at 37° C. under standard culture conditions (5% CO2-95% air) until they were approximately 75% confluent. Medium was then removed and the cells were made “serum-free” by incubation in MEM with no FBS for 24 hours. Adenosine or vehicle (MEM) was added for an additional 18 hours. This medium was then replaced with fresh MEM, and the cells were pulsed with […] [^3H] thymidine (6.7 Ci/mmol). After a 2 hour incubation period, the medium was discarded and the cells were rinsed twice with cold (4° C.) Hank's balanced salt solution (HBSS) and incubated for 5 minutes with 0.5 ml cold 10% (w/v) trichloroacetic acid (TCA). The wells were then rinsed with 8% TCA and the TCA-insoluble material was solubilized with 0.5 ml of a solution of 0.2M NaOH and 0.2% sodium […] sulfate (SDS). The radioactivity of this fraction was determined by standard liquid scintillation spectrometric techniques.
Incorporation of [^3H] thymidine was expressed as counts per minute (cpm) of ^3H per culture. Data in each experiment was derived from 4 identically treated wells.

[2] = test system: human lung fibroblasts (IMR-90); assay: [3H]thymidine incorporation in human lung fibroblasts (IMR-90); conditions: IMR-90 lung fibroblasts
Method: FIGS. 1A and 1B are histograms showing the effect of adenosine on [^3H]thymidine incorporation in cultures of normal human skin (FIG. 1A) and lung fibroblasts (FIG. 1B). After incubation in serum-free medium for 24 hours, cells were exposed to 10^−4 M adenosine for 18 hours. Medium was replaced with serum-free medium without adenosine, and [^3H]thymidine was added. Results are expressed as percent [^3H]thymidine incorporation compared to control cultures without adenosine and are means ±SEM for 4-5 experiments.
as §1
Cells were grown in Eagle's minimal essential medium (MEM) supplemented with 10% fetal bovine serum (FBS), 100 U/ml penicillin and […] streptomycin in a 37° C., 5% CO2/95% air environment. […]
As an index of DNA synthesis incorporation of [^3H]thymidine was measured as described in Ethier et al., Am. […] The radioactivity of this fraction was determined by standard liquid scintillation spectrometric techniques.
Incorporation of [^3H] thymidine was expressed as counts per minute (cpm) of ^3H per culture. […]

human skin fibroblasts [3] = assay: [3H]phenylalanine incorporation (index of protein synthesis) in human skin fibroblasts; conditions: 10^-4 M, 48 h
Method: FIGS. 2A and 2B are histograms showing concentration responses of adenosine-stimulated protein synthesis in human skin fibroblasts from a young (FIG. 2A) and aged (FIG. 2B) donor. Cells were grown to 75% confluence. Medium was then replaced with serum-free medium with or without adenosine. After 48 hours, [^3H]phenylalanine incorporation was determined as described. Results are expressed as %[^3H]phenylalanine incorporation compared to control cultures without adenosine and are means ±SEM for 6-25 experiments. […] Incorporation of [^3H]phenylalanine was measured as an index of protein synthesis. Human skin fibroblasts were seeded into 24-well culture plates in MEM containing 10% FBS. When cells had grown to approximately 75% confluence the culture medium was replaced with serum-free MEM with or without adenosine. After 48 hours, 2 μCi/ml [^3H]phenylalanine was added to the cultures. Unlabeled phenylalanine (0.36 mM) was also added to equalize concentrations of intracellular and extracellular phenylalanine. […] The radioactivity of this fraction was determined by standard liquid scintillation spectrometric techniques. Incorporation of [^3H] phenylalanine was expressed as cpm of ^3H per culture well and data in each experiment were derived from six identically treated wells.

human skin fibroblasts [4] = assay: Determination of cell size by forward light scatter (FACS); conditions: for % increase (cell size) / Relative Size (FLS): adenosine 10^-4 M, 18 h; for increase of cell size: 10^-4 M
Method: Human fibroblasts in MEM 10% FBS were seeded into 25 cm^2 culture flasks at a density of 1×10^4 cells/cm^2. When the cells had grown to approximately 80% confluence the culture medium was removed and the cells were incubated in serum-free MEM for 24 hours. Adenosine or vehicle (MEM) was added for 18 hours and cells were then washed twice with cold (4° C.) HBSS. Cells were removed with 0.25% trypsin in calcium-and magnesium-free MEM and diluted in cold (4° C.) HBSS for measurement of relative cell size with a fluorescence-activated cell sorter (FACS; Becton Dickinson Vantage). Cell size was determined by forward light scatter on a minimum of 1×10^4 cells per experiment. The effect of adenosine on cell size was determined on human skin fibroblasts from young and aged donors by measuring forward light scatter in a FACS analyzer. Cultures made quiescent by serum removal were exposed to adenosine for 18 hours, removed by trypsinization, and diluted in 4° C. HBSS. A minimum of 1×10^4 cells were measured for each experiment. Values are mean ±SEM for relative cell size determined by forward light scatter (FLS) in a fluorescence-activated cell sorter, and n=number of cells measured.

Compound: Nc1ncnc2c1ncn2[C@@H]1O[C@H](CO)[C@@H](O)[C@H]1O [adenosine]
- increase of [3H]thymidine incorporation (human skin fibroblasts [1]; human fibroblasts AG607720B made quiescent by serum removal, 10^-4 M adenosine, five studies (FIG. 1A)): 43±9%
- peak stimulation of [3H]thymidine incorporation (human skin fibroblasts [1]; skin fibroblasts from person (AG07306A), 10^-4 M, n=6): 93±20%
- increase of [3H]thymidine incorporation (human skin fibroblasts [1]; skin fibroblasts from person one, 10^-4 M): 53±31%
- increase of [3H]thymidine incorporation (human skin fibroblasts [1]; skin fibroblasts from person three, 10^-4 M): 54±22%
- effect on DNA synthesis ([3H]thymidine incorporation) (human skin fibroblasts [1]; skin fibroblasts from person two, 10^-4 M): no effect
- effect on [3H]thymidine incorporation ([2]; adenosine 10^-4 M (FIG. 1B)): no effect
- stimulation of [3H]thymidine incorporation ([2]; adenosine 10^-7 M to 10^-3 M (data not shown)): failed to stimulate
- increase of protein synthesis ([3H]phenylalanine incorporation) (human skin fibroblasts [3]; skin fibroblasts from person (AG073060A), n=25): 13±4%
- increase of protein synthesis ([3H]phenylalanine incorporation) (human skin fibroblasts [3]; skin fibroblasts from person three (AG11730), n=17): 13±6%
- % increase (cell size) (human skin fibroblasts [4]; aged donor, experiment 1): 2.7* %
- Relative Size (FLS) (human skin fibroblasts [4]; aged donor, experiment 1): 342 ± 0.75
- % increase (cell size) (human skin fibroblasts [4]; aged donor, experiment 2): 4.3* %
- Relative Size (FLS) (human skin fibroblasts [4]; aged donor, experiment 2): 337 ± 0.96
- % increase (cell size) (human skin fibroblasts [4]; aged donor, experiment 3): 4.9* %
- Relative Size (FLS) (human skin fibroblasts [4]; aged donor, experiment 3): 321 ± 0.81
- increase of cell size (human skin fibroblasts [4]; skin fibroblasts from person (AG073060A), two of three experiments): 1.8% and 2.2%
- increase of cell size (human skin fibroblasts [4]; skin fibroblasts from person three (AG11730), 3 of 3 experiments): 2.7-4.9%
- % increase (cell size) (human skin fibroblasts [4]; young donor, experiment 1): 0.4%
- Relative Size (FLS) (human skin fibroblasts [4]; young donor, experiment 1): 526 ± 0.55
- % increase (cell size) (human skin fibroblasts [4]; young donor, experiment 2): 2.2* %
- Relative Size (FLS) (human skin fibroblasts [4]; young donor, experiment 2): 326 ± 1.16
- % increase (cell size) (human skin fibroblasts [4]; young donor, experiment 3): 1.8* %
- Relative Size (FLS) (human skin fibroblasts [4]; young donor, experiment 3): 348 ± 0.95
